Measured values as given in patent publication US10202345B2, “Substituted azaspiro(4.5)decane derivatives” (priority 2014, dated 2019).

Biological target: human μ opiate receptor (Homo sapiens, UniProt P35372)
Test: μ opiate receptor binding assay with [3H]-naloxone (WGA-SPA beads)
Conditions: mean

Chain of human μ opiate receptor (P35372 whole entry): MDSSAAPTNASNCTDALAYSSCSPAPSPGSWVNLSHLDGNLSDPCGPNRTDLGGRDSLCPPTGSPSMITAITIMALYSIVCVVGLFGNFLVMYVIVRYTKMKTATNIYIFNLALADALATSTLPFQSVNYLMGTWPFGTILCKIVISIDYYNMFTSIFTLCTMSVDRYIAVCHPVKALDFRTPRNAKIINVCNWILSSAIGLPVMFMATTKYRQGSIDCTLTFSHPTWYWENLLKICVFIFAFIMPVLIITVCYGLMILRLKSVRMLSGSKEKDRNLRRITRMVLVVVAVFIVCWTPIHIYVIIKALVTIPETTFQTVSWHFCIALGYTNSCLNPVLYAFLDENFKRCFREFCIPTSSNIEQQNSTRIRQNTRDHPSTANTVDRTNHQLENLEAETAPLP

Row | SMILES | Ki
1 | CN(C)C1(Cc2ccccc2)CCC2(CCNC2=O)CC1 (single isomer, unassigned) [Example 1, 8-Benzyl-8-(dimethyl-amino)-3-azaspiro[4.5]decan-4-one] | 1.06 µM
2 | CN(C)C1(Cc2ccccc2)CCC2(CCNC2=O)CC1 (single isomer, unassigned) [Example 2, 8-Benzyl-8-(dimethyl-amino)-3-azaspiro[4.5]decan-4-one] | 4.79 µM
3 | CN(C)C1(Cc2ccccc2)CCC2(CCNC2)CC1 (single isomer, unassigned) [Example 3, (8-Benzyl-3-azaspiro[4.5]decan-8-yl)-dimethylamine] | 1.83 µM
4 | CN(C)C1(Cc2ccccc2)CCC2(CCNC2)CC1 (single isomer, unassigned) [Example 4, (8-Benzyl-3-azaspiro[4.5]decan-8-yl)-dimethylamine] | 0.92 µM
5 | CN1CCC2(CCC(Cc3ccccc3)(N(C)C)CC2)C1 (single isomer, unassigned) [Example 5, (8-Benzyl-3-methyl-3-azaspiro[4.5]decan-8-yl)-dimethylamine] | 1.45 µM
6 | CN1CCC2(CCC(Cc3ccccc3)(N(C)C)CC2)C1 (single isomer, unassigned) [Example 6, (8-Benzyl-3-methyl-3-azaspiro[4.5]decan-8-yl)-dimethylamine] | 1.1 µM
7 | CCCCN1CCC2(CCC(C(=O)c3ccccc3)(N(C)C)CC2)C1 (single isomer, unassigned) [Example 107, [3-Butyl-8-(dimethylamino)-3-azaspiro[4.5]decan-8-yl]-phenylmethanone] | 0.95 µM
8 | CN(C)C1(CC2CCCCC2)CCC2(CCNC2=O)CC1 (centres unmarked) [Example 92, 8-(Cyclohexylmethyl)-8-dimethylamino-3-azaspiro[4.5]decan-4-one] | 3590 µM
9 | CN1CCC2(CCC(Cc3ccccc3)(N(C)C)CC2)C1=O (centres unmarked) [Example 118] | 5.5 µM
10 | CN1CCC2(CCC(Cc3ccccc3)(N(C)C)CC2)C1=O (centres unmarked) [Example 119] | 3.57 µM
11 | CN1CC2(CCC(C3CCCC3)(N(C)C)CC2)CC1=O (centres unmarked) [Example 282] | 0.295 µM
12 | CN(C)C1(C2CCCC2)CCC2(CCN(C(=O)C3COC3)C2)CC1 (centres unmarked) [Example 291] | 0.175 µM

Tested on: not given
Test: not given
Conditions: not given

Row | SMILES | melting point
13 | CN(C)C1(Cc2ccccc2)CCC2(CCNC2=O)CC1 (single isomer, unassigned) [Example 2, 8-Benzyl-8-(dimethyl-amino)-3-azaspiro[4.5]decan-4-one] | 202 to 204 °C
14 | CN1CCC2(CCC(Cc3ccccc3)(N(C)C)CC2)C1 (single isomer, unassigned) [Example 6, (8-Benzyl-3-methyl-3-azaspiro[4.5]decan-8-yl)-dimethylamine] | 57 to 58 °C
